In US6337344B1, “Indole derivatives as inhibitors or factor Xa” (Aventis Pharma Deutschland GmbH, priority 1997, dated 2002) one finds melting point and Ki data, which are given here for eight molecules.

One data set concerns the target T1, human factor Xa (Homo sapiens, UniProt P00742).
T1 construct: purchased Enzyme Research Laboratories, Inc; South Bend, Ind
The data set is described as follows: Factor Xa assay (Test 1, a.), chromogenic substrate S-2765. The data set is classed as biochemical. The procedure: Purified enzymes are used in chromogenic assays. To determine the inhibition constant Ki, the IC50 value is corrected for competition with substrate using the formula
Ki'IC50×(1/{1+((substrate concentration)/substrate Km)})
wherein Km is the Michaelis-Menten constant (Chen and Prusoff, Biochem. Pharmacol. 22 (1973), […] which is incorporated herein by reference).
TBS-PEG buffer (50 mM Tris-Cl, pH 7.8, 200 mM NaCl, 0.05% (w/v) PEG-8000, 0.02% (w/v) NaN3) is used for this assay.
The assay is performed by pre-incubating the compound of formula I plus enzyme for 10 min. Then the assay is initiated by adding substrate to obtain a final volume of 100 μl. The initial velocity of chromogenic substrate hydrolysis is measured by the change in absorbance at 405 nm using a Bio-tek Instruments kinetic plate reader (Ceres UV900HDi) at 25° C. during the linear portion of the time course (usually 1.5 min after addition of substrate). The concentration of inhibitor that causes a 50% decrease in the rate of substrate hydrolysis is predicted by linear regression after plotting the relative rates of hydrolysis (compared to the uninhibited control) versus the log of the concentration of the compound of formula I. The enzyme concentration is 0.5 nM and substrate concentration is 140 μM.
The inhibition constants were determined as described above (Test 1, a., Factor Xa Assay).

The target in the next data set is factor Xa. The following applies: values of known factor Xa inhibitors stated in the background; cited from earlier work.

T1 sequence (P00742 235-488 limits assumed): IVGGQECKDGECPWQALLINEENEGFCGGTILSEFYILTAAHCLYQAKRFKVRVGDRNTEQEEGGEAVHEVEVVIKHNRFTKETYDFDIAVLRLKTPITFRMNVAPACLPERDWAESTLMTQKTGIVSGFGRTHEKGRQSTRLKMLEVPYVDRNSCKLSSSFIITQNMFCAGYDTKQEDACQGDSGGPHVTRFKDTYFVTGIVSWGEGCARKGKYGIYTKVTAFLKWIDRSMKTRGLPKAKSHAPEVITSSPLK
T1 sequence (P00742 41-179 partner limits assumed): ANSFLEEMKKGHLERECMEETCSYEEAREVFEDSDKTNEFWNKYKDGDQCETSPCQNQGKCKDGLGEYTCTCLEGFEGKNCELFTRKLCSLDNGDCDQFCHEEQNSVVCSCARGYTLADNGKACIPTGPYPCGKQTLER

For orientation: melting point means the temperature of the solid-liquid transition. By Ki is commonly meant a measure of affinity in units of concentration, obtained from inhibition or displacement. As for `CN1CCC(C(NC(=O)c2cc3ccccc3n2Cc2cccc(C(=N)N)c2)c2ccc3cc(Cl)ccc3c2)CC1.O=C(O)C(F)(F)F.O=C(O)C(F)(F)F` (racemic) [Example 27, (RS)-1-(3-Amidino-benzyl)-1H-indole-2-carboxylic acid ((6-chloro-2-naphthyl)-(1-methyl-piperidin-4-yl)-methyl)amide trifluoroacetic acid salt], the melting point is 110 to 120 °C. This molecule also showed a Ki at human factor Xa of 610 nM.

“tick anticoagulant peptide (YNRLCIKPRDWIDECDSNEGGERAYFRNGKGGCDSFWICPEDHTGADYYSSYRDCFNACI; UniProt P17726 1-60, looked up) [TAP]”: the Ki on factor Xa was about 0.5 nM.

Regarding `CC(=O)O.CC(=O)[O-].C[N+](C)(C)c1ccc(CNC(=O)c2cc3c(O)cccc3n2Cc2cccc(C(=N)N)c2)cc1` [Example 39, [4-({[1-(3-Amidino-benzyl)-4-hydroxy-1H-indole-2-carbonyl]-amino}-methyl)-phenyl]-trimethyl-ammonium acetate acetic acid salt], the melting point is 113 °C (dec.). Besides, the Ki on human factor Xa amounted to 7 nM.

Take `CC(=O)O.CC(=O)[O-].CC(C)(C)OC(=O)Nc1ccc2c(c1)cc(C(=O)NCc1ccc([N+](C)(C)C)cc1)n2Cc1cccc(C(=N)N)c1` [Example 58, [4-({[1-(3-Amidino-benzyl)-5-tert-butoxycarbonylamino-1H-indole-2-carbonyl]-amino}-methyl)-phenyl]-trimethyl-ammonium acetate acetic acid salt]: the melting point was 146 °C (dec.). Besides, affinity at human factor Xa was put at a Ki of 14 nM.

On to `N=C(N)c1ccc(CNC(=O)c2cc3c(O)cccc3n2Cc2cccc(C(=N)N)c2)cc1.O=C(O)C(F)(F)F.O=C(O)C(F)(F)F` [Example 78, 1-(3-Amidino-benzyl)-4-hydroxy-1H-indole-2-carboxylic acid 4-amidino-benzylamide trifluoroacetic acid salt], for which the melting point was 155 to 157 °C. The molecule also registered a Ki at human factor Xa of 210 nM.

`N=C(N)c1cccc(Cn2c(C(=O)NC(c3ccccc3)c3ccncc3)cc3ccccc32)c1.O=C(O)C(F)(F)F.O=C(O)C(F)(F)F` (racemic) [Example 23, (RS)-1-(3-Amidino-benzyl)-1H-indole-2-carboxylic acid α-(4-pyridyl)-benzyl amide trifluoroacetic acid salt] showed a melting point of 88 to 92 °C. Besides, the affinity on human factor Xa corresponds to a Ki of 7000 nM.

For the molecule `N=C(N)c1ccc(C=C2CCCCC(=Cc3ccc(C(=N)N)cc3)C2=O)cc1` [2,7-bis-(4-amidinobenzylidene)-cycloheptanone, reference compound], the Ki on factor Xa was about 20 nM.

B1: antistasin (protein, UniProt P15358 18-136, looked up)
Antistasin: QGPFGPGCEEAGCPEGSACNIITDRCTCSGVRCRMHCPHGFQRSRYGCEFCKCRLEPMKATCDISECPEGMMCSRLTNKCDCKIDINCRKTCPNGLKRDKLGCEYCECRPKRKLIPRLS
Take B1: the Ki on factor Xa is 0.05 nM.
